# Measurements as given in publication PMC11094307, “Marine-derived EGFR inhibitors: novel compounds targeting breast cancer growth and drug resistance” (Frontiers in Pharmacology, 2024).
# Legend:
# [1] = test system: Cleaved Caspase-3; experiment: Western blotting of MCF-7 lysates, cleaved caspase-3; type: cell-based, human; settings: for Cleaved Caspase-3 WB Normalized: control 0 µM 0.213235397
# Description: (§1) MCF-7 cell lysates were prepared by rinsing the cells twice with PBS and then solubilizing them in lysis buffer (NP40 supplemented with protease and phosphatase inhibitor cocktails) on ice. The solubilization process involved rotating the lysis buffer/cell mixture end over end for 10 min at 4°C. After centrifugation for 10 min at 4°C to remove insoluble material, the protein concentration of the solubilized protein was determined using a BCA assay. Subsequently, samples were diluted in SDS sample buffer. Equivalent amounts of protein were separated by SDS-PAGE, transferred to PVDF membranes, and probed with the indicated antibody. Prior to incubation with primary antibodies overnight at 4°C, the membranes were blocked with 5% skim milk-TBST. The antibodies and their sources were as follows: PARP1 (1:500, Santa Cruz Biotechnology), Cleaved Caspase-3 (1:1000, Cell Signaling Technology), BAX (1:500, Santa Cruz Biotechnology), BCL-2 (1:500, Santa Cruz Biotechnology), and GAPDH (1:500, Santa Cruz Biotechnology). Following incubation with horseradish peroxidase-conjugated goat anti-mouse or goat anti-rabbit secondary antibody (Santa Cruz Biotechnology), the detected proteins were visualized using the Pierce Enhanced Chemiluminescence (ECL) reagent and a UV Products imaging system. Band intensities were quantified using the National Institutes of Health ImageJ software.
# [2] = test system: MCF-7 cells; experiment: MTT assay, MCF-7 growth inhibition; type: cell-based, human
# Description: Both mediums were enriched with 10% fetal bovine serum and 1% penicillin/streptomycin.
# Cells in the exponential growth phase were seeded into 96-well plates and allowed to adhere overnight. […] After 24 h, 20 µL of Methyl-thiazolyldiphenyl-tetrazolium bromide (MTT, 5 mg/mL, Thermo Fisher Scientific) was added to each well and incubated for a minimum of 4 h. Following the incubation, the medium containing the compounds and MTT was removed from each well, and 200 µL of dimethyl sulfoxide (DMSO) was added.
# All experiments were repeated at least three times, and the data are presented as mean ± standard deviation (SD). The statistical analyses were performed using Origin. EC50 or IC50 values were obtained by fitting the data to a four-parameter Hill model of the graph of log dose against percentage cell viability or inhibition from at least three sets of experiments. Difference between two groups were analyzed by Student’s t test (two-sided) and significance was set at p < 0.05. The specific details about statistical methods are introduced in respective figure legends.
# [3] = test system: A549 cells; experiment: MTT assay, A549; type: cell-based, human; settings: A549 (high EGFR-expressing), 10 μM
# Description: The cell lines MCF-7 and A431 were cultured in Dulbecco’s Modified Eagle’s Medium (DMEM, Gibco, USA), while HL-60, H1299, and A549 cells were maintained in RPMI-1640 medium (Gibco, USA). Both mediums were enriched with 10% fetal bovine serum and 1% penicillin/streptomycin. […] All cell cultures were incubated at 37°C in an atmosphere containing 5% CO2.
# Cells in the exponential growth phase were seeded into 96-well plates and allowed to adhere overnight. Subsequently, they were treated in triplicate with various concentrations of the compounds (0, 1.56, 3.13, 6.25, 12.5, 25, 50, 100 µM), […]. After 24 h, 20 µL of Methyl-thiazolyldiphenyl-tetrazolium bromide (MTT, 5 mg/mL, Thermo Fisher Scientific) was added to each well and incubated for a minimum of 4 h. Following the incubation, the medium containing the compounds and MTT was removed from each well, and 200 µL of dimethyl sulfoxide (DMSO) was added. The plates were then shaken for 10 min at 37°C to dissolve the formazan crystals. The absorbance was measured using a microplate reader (BioTek Synergy 4) at a wavelength of 490 nm.
# [4] = test system: PARP1; experiment: Western blotting of MCF-7 lysates, PARP1; type: cell-based, human; settings: for PARP1 WB Normalized: control 0 µM 1.034604877
# Description: as §1
# [5] = target: ABL (Homo sapiens, UniProt P00519); experiment: Kinase profiling; type: biochemical; settings: one of the other seven tyrosine kinases
# ABL, sequence (P00519 whole entry): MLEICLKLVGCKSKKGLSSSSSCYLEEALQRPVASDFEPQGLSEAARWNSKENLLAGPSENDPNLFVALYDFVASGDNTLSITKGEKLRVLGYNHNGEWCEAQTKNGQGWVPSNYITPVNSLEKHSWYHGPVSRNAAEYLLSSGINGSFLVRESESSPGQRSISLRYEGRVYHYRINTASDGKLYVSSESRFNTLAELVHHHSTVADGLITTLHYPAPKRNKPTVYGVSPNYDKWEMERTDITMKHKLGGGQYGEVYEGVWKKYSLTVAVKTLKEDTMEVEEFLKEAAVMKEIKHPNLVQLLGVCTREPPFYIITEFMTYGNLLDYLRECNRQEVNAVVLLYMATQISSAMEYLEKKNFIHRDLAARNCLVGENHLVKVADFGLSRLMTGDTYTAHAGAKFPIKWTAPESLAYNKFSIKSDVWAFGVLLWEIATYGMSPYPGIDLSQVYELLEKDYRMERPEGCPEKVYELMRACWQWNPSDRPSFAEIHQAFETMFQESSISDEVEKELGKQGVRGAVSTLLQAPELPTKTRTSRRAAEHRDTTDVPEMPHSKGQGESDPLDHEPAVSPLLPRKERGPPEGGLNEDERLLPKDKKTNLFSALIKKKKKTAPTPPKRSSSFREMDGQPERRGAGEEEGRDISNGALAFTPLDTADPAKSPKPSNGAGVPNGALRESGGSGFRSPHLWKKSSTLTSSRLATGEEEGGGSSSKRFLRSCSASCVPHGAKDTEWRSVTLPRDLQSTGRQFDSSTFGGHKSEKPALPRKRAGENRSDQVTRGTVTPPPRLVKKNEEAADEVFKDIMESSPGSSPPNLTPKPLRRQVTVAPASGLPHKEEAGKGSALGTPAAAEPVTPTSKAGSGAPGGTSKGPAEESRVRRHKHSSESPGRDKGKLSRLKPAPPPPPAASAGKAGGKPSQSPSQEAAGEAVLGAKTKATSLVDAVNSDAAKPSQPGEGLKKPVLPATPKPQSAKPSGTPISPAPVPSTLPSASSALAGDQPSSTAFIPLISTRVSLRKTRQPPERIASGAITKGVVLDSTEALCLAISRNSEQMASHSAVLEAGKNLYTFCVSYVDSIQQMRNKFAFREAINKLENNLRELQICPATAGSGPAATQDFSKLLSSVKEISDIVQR
# Description: (§2) The experiments were conducted in accordance with the manufacturer’s guidelines (Promega). The procedure began with a kinase reaction, where 5 μL of 1× kinase buffer was utilized, and the mixture was incubated at room temperature for 60 min. This step was followed by the addition of 5 μL of ADP-Glo™ reagent to terminate the kinase reaction and to deplete any remaining ATP, with a subsequent incubation period of 40 min at room temperature. Next, 10 μL of kinase detection reagent was added to convert ADP back into ATP, and luciferase along with luciferin was introduced to facilitate ATP detection. This mixture was then incubated at room temperature for an additional 30 min. Detection was carried out using a BioTek Synergy4 instrument, and data analysis, including curve fitting and presentation, was performed using GraphPad Prism version 5.0.
# [6] = target: FLT1 (Homo sapiens, UniProt P17948); experiment: Kinase profiling; type: biochemical; settings: one of the other seven tyrosine kinases
# FLT1, sequence (P17948 27-1338): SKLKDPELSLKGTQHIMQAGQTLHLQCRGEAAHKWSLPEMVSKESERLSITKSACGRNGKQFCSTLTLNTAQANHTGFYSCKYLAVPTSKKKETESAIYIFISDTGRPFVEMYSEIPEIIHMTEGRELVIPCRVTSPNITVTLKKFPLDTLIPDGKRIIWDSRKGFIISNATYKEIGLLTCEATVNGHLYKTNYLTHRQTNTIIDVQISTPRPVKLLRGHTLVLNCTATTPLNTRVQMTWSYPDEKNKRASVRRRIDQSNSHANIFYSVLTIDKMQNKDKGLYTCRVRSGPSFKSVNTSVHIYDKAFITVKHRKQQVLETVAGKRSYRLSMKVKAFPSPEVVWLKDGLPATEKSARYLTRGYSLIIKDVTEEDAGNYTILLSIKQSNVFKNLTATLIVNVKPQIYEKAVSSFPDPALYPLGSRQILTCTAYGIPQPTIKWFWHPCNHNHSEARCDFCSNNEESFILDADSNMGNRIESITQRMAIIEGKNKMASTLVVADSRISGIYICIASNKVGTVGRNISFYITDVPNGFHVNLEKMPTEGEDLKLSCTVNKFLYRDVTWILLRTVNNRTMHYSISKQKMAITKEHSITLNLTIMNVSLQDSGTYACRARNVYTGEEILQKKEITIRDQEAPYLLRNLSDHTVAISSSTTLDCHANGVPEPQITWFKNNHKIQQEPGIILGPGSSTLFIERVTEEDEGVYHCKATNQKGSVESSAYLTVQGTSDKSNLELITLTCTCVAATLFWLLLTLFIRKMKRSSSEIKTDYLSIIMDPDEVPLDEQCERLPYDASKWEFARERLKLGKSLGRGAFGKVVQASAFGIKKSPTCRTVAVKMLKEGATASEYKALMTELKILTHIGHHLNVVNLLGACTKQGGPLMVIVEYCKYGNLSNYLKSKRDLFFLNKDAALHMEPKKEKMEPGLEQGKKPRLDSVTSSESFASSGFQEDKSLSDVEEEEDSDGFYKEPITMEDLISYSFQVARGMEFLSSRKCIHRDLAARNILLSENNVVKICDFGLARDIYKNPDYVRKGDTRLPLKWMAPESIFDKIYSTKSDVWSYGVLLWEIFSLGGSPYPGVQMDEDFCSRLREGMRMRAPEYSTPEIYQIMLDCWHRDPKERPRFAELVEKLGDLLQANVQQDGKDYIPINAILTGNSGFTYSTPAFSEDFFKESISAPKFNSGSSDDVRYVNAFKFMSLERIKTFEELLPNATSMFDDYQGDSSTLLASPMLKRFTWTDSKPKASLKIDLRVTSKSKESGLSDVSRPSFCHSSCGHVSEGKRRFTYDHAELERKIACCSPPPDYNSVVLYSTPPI
# Description: as §2
# [7] = target: FGFR1 (Homo sapiens, UniProt P11362); experiment: Kinase profiling; type: biochemical; settings: one of the other seven tyrosine kinases
# FGFR1, sequence (P11362 22-822): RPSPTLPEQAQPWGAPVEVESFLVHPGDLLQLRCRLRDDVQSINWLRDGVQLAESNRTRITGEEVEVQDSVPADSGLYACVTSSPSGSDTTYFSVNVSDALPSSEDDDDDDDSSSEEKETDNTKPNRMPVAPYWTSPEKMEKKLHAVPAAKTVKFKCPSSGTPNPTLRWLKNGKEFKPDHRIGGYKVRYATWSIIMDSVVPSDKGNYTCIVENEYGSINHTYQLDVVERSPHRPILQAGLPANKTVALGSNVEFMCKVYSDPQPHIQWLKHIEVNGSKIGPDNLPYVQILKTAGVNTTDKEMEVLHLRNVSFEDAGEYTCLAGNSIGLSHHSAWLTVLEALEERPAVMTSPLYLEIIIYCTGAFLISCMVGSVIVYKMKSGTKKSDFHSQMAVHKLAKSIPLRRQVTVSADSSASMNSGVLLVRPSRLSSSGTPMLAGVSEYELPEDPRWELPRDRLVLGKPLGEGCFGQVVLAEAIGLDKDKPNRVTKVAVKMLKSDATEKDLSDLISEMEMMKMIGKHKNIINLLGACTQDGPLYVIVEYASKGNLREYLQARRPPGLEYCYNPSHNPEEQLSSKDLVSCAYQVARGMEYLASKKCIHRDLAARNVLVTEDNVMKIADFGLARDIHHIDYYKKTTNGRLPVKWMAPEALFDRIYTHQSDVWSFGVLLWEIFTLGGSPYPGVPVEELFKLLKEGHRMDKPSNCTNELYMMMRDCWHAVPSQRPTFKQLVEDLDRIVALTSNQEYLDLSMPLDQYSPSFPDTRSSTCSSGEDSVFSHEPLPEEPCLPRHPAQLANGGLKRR
# Description: as §2
# [8] = target: FGFR3 (Homo sapiens, UniProt P22607); experiment: Kinase profiling; type: biochemical; settings: one of the other seven tyrosine kinases
# FGFR3, sequence (P22607 23-806): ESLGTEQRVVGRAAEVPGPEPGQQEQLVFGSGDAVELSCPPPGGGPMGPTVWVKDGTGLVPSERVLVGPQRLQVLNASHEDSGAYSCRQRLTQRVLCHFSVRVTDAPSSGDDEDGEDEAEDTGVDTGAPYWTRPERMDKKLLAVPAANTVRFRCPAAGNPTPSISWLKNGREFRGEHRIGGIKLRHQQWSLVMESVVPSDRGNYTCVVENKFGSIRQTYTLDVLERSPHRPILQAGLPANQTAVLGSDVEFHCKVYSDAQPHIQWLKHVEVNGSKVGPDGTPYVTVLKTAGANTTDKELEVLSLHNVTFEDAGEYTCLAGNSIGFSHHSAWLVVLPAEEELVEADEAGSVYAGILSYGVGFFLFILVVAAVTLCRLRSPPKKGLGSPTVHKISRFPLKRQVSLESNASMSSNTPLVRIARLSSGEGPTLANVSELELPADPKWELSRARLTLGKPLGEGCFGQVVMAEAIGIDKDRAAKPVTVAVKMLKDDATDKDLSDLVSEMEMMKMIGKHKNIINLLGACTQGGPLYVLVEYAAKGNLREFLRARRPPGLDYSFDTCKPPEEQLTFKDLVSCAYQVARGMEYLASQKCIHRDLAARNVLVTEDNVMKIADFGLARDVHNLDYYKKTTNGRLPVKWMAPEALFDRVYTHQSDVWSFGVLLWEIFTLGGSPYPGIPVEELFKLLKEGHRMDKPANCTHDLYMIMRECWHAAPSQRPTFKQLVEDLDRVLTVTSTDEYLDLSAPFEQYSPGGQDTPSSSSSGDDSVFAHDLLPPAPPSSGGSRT
# Description: as §2
# [9] = target: ECK (Homo sapiens, UniProt P29317); experiment: Kinase profiling; type: biochemical; settings: one of the other seven tyrosine kinases
# Description: as §2
# [10] = target: FAK (Homo sapiens, UniProt Q05397); experiment: Kinase profiling; type: biochemical; settings: one of the other seven tyrosine kinases
# FAK, sequence (Q05397 whole entry): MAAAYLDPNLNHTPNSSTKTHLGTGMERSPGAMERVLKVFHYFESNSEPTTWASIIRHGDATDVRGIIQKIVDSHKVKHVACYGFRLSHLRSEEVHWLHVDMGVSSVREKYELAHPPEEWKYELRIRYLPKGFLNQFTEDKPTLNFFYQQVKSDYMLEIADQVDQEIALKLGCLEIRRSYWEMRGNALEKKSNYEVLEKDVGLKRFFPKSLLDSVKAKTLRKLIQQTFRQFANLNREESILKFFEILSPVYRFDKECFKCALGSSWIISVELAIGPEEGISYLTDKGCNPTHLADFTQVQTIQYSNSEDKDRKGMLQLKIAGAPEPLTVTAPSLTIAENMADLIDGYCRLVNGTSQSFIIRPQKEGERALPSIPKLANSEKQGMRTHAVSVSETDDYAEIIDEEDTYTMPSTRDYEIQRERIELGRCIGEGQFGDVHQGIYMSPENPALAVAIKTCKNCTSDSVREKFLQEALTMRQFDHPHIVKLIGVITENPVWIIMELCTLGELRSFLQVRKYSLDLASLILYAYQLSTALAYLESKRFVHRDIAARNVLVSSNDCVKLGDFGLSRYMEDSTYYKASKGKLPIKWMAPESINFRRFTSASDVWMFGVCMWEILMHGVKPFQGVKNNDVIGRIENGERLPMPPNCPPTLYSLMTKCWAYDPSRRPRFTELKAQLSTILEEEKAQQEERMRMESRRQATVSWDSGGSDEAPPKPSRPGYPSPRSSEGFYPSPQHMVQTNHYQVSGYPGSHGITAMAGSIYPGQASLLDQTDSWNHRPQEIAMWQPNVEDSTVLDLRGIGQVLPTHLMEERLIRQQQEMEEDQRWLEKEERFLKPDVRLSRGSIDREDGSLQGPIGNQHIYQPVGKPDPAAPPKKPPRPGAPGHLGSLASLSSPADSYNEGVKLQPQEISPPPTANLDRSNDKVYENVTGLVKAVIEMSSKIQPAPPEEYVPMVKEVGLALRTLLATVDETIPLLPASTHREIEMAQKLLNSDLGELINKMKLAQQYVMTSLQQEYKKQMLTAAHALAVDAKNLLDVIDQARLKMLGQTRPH
# Description: as §2
compound,measurement,setting,value
COC(=O)C/C(C)=C/C(=O)O[C@@H]1C[C@@H](C)[C@H]2[C@@H](C=C[C@H](CC(C)C)[C@]2(C)C(=O)/C=C\O)[C@@H]1O [Tandyukisin],Cleaved Caspase-3 WB Gray Value,[1]; 5 µM,17172.004
same,Cleaved Caspase-3 WB Normalized,[1]; 5 µM,0.3916
same,Cleaved Caspase-3 WB Gray Value,[1]; 10 µM,22734.418
same,Cleaved Caspase-3 WB Normalized,[1]; 10 µM,0.5222
same,Cleaved Caspase-3 WB Gray Value,[1]; 20 µM,173083.238
same,Cleaved Caspase-3 WB Normalized,[1]; 20 µM,5.061
same,expression level of cleaved caspase-3 protein,"[1]; MCF-7, upon treatment",increased
same,EC50,"[2]; Homo sapiens, MCF7, MTT, 24 h, read-out: EC50, MCF-7 cell viability",3 ± 1 µM
same,cell lethality percentage,"[2]; MCF-7, 10 μM",75.7% ± 2.3%
same,cell lethality percentage,[3],72.1% ± 1.8%
same,PARP1 WB Gray Value,[4]; 5 µM,43160.066
same,PARP1 WB Normalized,[4]; 5 µM,0.9844
same,PARP1 WB Gray Value,[4]; 10 µM,33044.409
same,PARP1 WB Normalized,[4]; 10 µM,0.759
same,PARP1 WB Gray Value,[4]; 20 µM,24731.459
same,PARP1 WB Normalized,[4]; 20 µM,0.7232
same,expression level of PARP1,"[4]; MCF-7, upon treatment",decreased
same,IC50,[5],> 100 µM
same,IC50,[6],> 100 µM
same,IC50,[7],> 100 µM
same,IC50,[8],> 100 µM
same,IC50,[9],> 100 µM
same,IC50,[10],> 100 µM
